Results as given in the supplement of paper PMC10883282.
± gives the standard deviation of the averaged measurements.

Tested on: HS729
Test: relative viability vs DMSO control (72 h) (fraction); higher = more viable cells
Procedure, shortened: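 After seeding at densities set for 80–90% confluence in 384-well plates, sarcoma cell lines waited 24 h before 2.5 µl of serially diluted compound was added. Source plates held 10 mM down to 0.0002 mM. Plates were incubated 72 h at 37 °C with 5% CO2, with 0.1% DMSO vehicle and a 5 µM positive control, and relative viability was taken from ATPLite as percent growth averaged over up to triplicate wells, with 1 set as full and 0 as none.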

Compound | relative viability (0.00017 µM) | relative viability (0.00051 µM) | relative viability (0.00152 µM) | relative viability (0.00457 µM) | relative viability (0.01372 µM) | relative viability (0.04115 µM) | relative viability (0.1235 µM) | relative viability (0.3704 µM) | relative viability (1.111 µM) | relative viability (3.333 µM) | relative viability (10 µM)
Cc1cc(C)c(/C=C2\C(=O)Nc3ccccc32)[nH]1 [Semaxanib] | 0.893 ± 0.093 | 0.895 ± 0.11 | 0.895 ± 0.074 | 0.889 ± 0.093 | 0.871 ± 0.086 | 0.883 ± 0.097 | 0.853 ± 0.078 | 0.821 ± 0.069 | 0.762 ± 0.07 | 0.747 ± 0.057 | 0.613 ± 0.036
O=C(Nc1cnn2ccc(N3CCC[C@@H]3c3cc(F)ccc3F)nc12)N1CC[C@H](O)C1 [Larotrectinib] | 1.07 ± 0.041 | 0.958 ± 0.062 | 0.895 ± 0.033 | 0.874 ± 0.029 | 0.939 ± 0.019 | 0.887 ± 0.074 | 0.936 ± 0.021 | 0.905 ± 0.095 | 0.85 ± 0.013 | 0.84 ± 0.094 | 0.849 ± 0.02
C=CC(=O)N1CCC[C@@H](n2nc(-c3ccc(Oc4ccccc4)cc3)c3c(N)ncnc32)C1 [Ibrutinib] | 1.04 ± 0.018 | 1.01 ± 0.051 | 0.942 ± 0.027 | 0.9505 ± 0.0054 | 0.972 ± 0.088 | 0.927 ± 0.063 | 0.907 ± 0.014 | 0.926 ± 0.03 | 0.94 ± 0.05 | 0.907 ± 0.068 | 0.762 ± 0.03
CC(C)N1CCN(Cc2cnc(-c3cc(-c4cccc5[nH]ccc45)cc4[nH]ncc34)o2)CC1 [Nemiralisib] | 1.06 ± 0.022 | 0.984 ± 0.026 | 0.98 ± 0.067 | 0.938 ± 0.038 | 0.978 ± 0.059 | 0.97 ± 0.067 | 0.892 ± 0.012 | 0.909 ± 0.063 | 0.787 ± 0.029 | 0.653 ± 0.037 | 0.52 ± 0.029
CN1CCN(c2ccc3nc(-c4c(N)c5c(F)cccc5[nH]c4=O)[nH]c3c2)CC1 [Dovitinib] | 1.09 ± 0.058 | 1.03 ± 0.036 | 1.09 ± 0.027 | 1.04 ± 0.061 | 1.05 ± 0.079 | 1 ± 0.026 | 0.968 ± 0.083 | 0.832 ± 0.059 | 0.62 ± 0.025 | 0.41 ± 0.066 | 0.264 ± 0.034
COc1c(OCCCN2CCOCC2)ccc2c1N=C(NC(=O)c1cnc(N)nc1)N1CCN=C21 [Copanlisib] | 1.05 ± 0.04 | 0.906 ± 0.03 | 0.919 ± 0.027 | 0.701 ± 0.12 | 0.688 ± 0.028 | 0.6016 ± 0.0023 | 0.483 ± 0.028 | 0.439 ± 0.045 | 0.324 ± 0.035 | 0.306 ± 0.022 | 0.255 ± 0.015
CNC(=O)c1ccc(-c2cnc3ncc(Cc4ccc5ncccc5c4)n3n2)cc1F [Capmatinib] | 0.949 ± 0.061 | 0.94 ± 0.025 | 0.945 ± 0.027 | 0.956 ± 0.053 | 0.935 ± 0.021 | 0.956 ± 0.023 | 0.949 ± 0.029 | 0.921 ± 0.054 | 0.924 ± 0.043 | 0.953 ± 0.087 | 0.906 ± 0.066
Cn1cc(-c2cc3c(N4CCN(c5ncc([C@@](C)(N)c6ccc(F)cc6)cn5)CC4)ncnn3c2)cn1 [Avapritinib] | 0.909 ± 0.046 | 0.949 ± 0.023 | 0.9313 ± 0.0083 | 0.916 ± 0.037 | 0.909 ± 0.025 | 0.899 ± 0.077 | 0.864 ± 0.093 | 0.822 ± 0.084 | 0.814 ± 0.11 | 0.819 ± 0.086 | 0.802 ± 0.13
CCCS(=O)(=O)Nc1ccc(F)c(C(=O)c2c[nH]c3ncc(-c4ccc(Cl)cc4)cc23)c1F [Vemurafenib] | 0.9411 ± 0.0078 | 0.97 ± 0.024 | 0.949 ± 0.051 | 0.949 ± 0.05 | 0.962 ± 0.021 | 0.915 ± 0.03 | 0.955 ± 0.031 | 0.908 ± 0.013 | 0.9276 ± 0.0087 | 0.856 ± 0.065 | 0.73 ± 0.016
